{"source": "patent US6479519B1", "about": "“Substituted anilides” (Aventis Pharma Limited, priority 1997, dated 2002)"}
{"smiles": "COc1cc(CC(=O)Nc2ccc([C@@H](CC(=O)O)NC(=O)CCCC(=O)O)cc2)ccc1NC(=O)Nc1ccccc1C", "note": "[Example 5(h), (R)-3-(4-carboxybutanoyl-amino)-3-(4-{3-methoxy-4-[3-(2-methylphenyl)ureido]phenylacetylamino}-phenyl)-propanoic acid]", "melting point": "220 to 222 °C"}
{"smiles": "COc1cc(N(C(C)=O)c2ccc([C@@H](CC(=O)O)NC(=O)CN)cc2)ccc1NC(=O)Nc1ccccc1C", "note": "[Example 10, (R)-3-[(2-amino-acetyl)amino]-3-(4-{3-methoxy-4-[3-(2-methylphenyl)ureido]phenyl-acetylamino}phenyl)propanoic acid]", "melting point": "105 to 108 °C (dec.)"}
{"smiles": "COc1cc(CC(=O)Nc2ccc([C@@H](CC(=O)O)NC(=O)c3ccc[n+]([O-])c3)cc2)ccc1NC(=O)Nc1ccccc1C", "note": "[Example 11, (R)-3-[(1-oxido-pyridine-3-carbonyl)amino]-3-(4-{3-methoxy-4-[3-(2-methylphenyl)ureido]-phenylacetylamino}phenyl)-propanoic acid]", "melting point": "190 °C (dec.)"}
